{
  "source": "paper PMC5754216",
  "about": "(ACS infectious diseases, 2016)",
  "key": {"HeLa cells": {"test_system": "HeLa cells", "conditions": "10 µM"}, "[1]": {"test_system": "WT-PV (wild type PV Mahoney)", "format": "cell-based, poliovirus", "conditions": "25 μM, 48 h"}, "in vitro": {"assay": "in vitro", "conditions": "human"}, "[2]": {"test_system": "Sb-Gluc (modified PV expressing Gaussia Luciferase)", "format": "cell-based, poliovirus", "conditions": "for Ec (%), inhibitory effect on poliovirus replication: 10 µM"}, "[3]": {"test_system": "WT-PV (wild type PV Mahoney)", "assay": "microbe, parasite or virus in culture", "format": "cell-based, poliovirus"}, "Sb-GLuc": {"test_system": "Sb-GLuc", "format": "cell-based, poliovirus"}, "293T cells": {"test_system": "293T cells", "assay": "Cytotoxicity in 293T cells", "format": "cell-based", "conditions": "up to 100 μM"}, "Vero cells": {"test_system": "Vero cells", "assay": "Viability of Vero cells", "format": "cell-based", "conditions": "0.1 μM"}, "[4]": {"format": "in vivo", "conditions": "rhesus macaques, pilot PK studies"}, "[5]": {"target": "PV RNA-dependent RNA polymerase 3Dpol (Poliovirus type 1, UniProt P03300)", "sequence (P03300 1749-2209 limits assumed)": "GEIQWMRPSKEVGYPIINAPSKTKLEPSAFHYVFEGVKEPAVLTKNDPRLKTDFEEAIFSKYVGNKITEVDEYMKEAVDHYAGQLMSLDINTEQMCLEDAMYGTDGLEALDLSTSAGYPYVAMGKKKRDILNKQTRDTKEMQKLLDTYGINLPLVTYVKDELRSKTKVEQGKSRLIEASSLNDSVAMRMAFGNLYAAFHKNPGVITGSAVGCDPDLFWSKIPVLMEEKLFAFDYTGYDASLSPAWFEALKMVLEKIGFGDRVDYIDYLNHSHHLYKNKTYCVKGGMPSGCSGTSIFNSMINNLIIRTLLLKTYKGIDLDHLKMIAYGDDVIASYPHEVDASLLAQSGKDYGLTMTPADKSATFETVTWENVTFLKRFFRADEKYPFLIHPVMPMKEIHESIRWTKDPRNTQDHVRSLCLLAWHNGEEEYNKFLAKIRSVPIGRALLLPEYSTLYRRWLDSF", "format": "biochemical"}},
  "note": "Entries after “also recorded” stand apart in the source; their conditions may differ. Structures can show the parent of a compound that is named as a salt.",
  "data": [
    {"compound": "Nc1nc(O)c2[nH]nnc2n1", "note": "[azaguanine-8]", "values": [
      {"measurement": "Vc (%), cell viability rate on HeLa cells", "setting": "HeLa cells", "value": 47.54, "unit": "%"}
    ]},
    {"compound": "CC(=O)N1CCN(c2ccc(OCC3COC(Cn4ccnc4)(c4ccc(Cl)cc4Cl)O3)cc2)CC1", "note": "(stereo not drawn) [ketoconazole]", "values": [
      {"measurement": "Protection of HeLa cells from WT-PV (plaque assay)", "setting": "[1]", "value": "partial protective effect"},
      {"measurement": "viability at 10 µM", "setting": "in vitro", "value": 103, "unit": "%"}
    ]},
    {"compound": "CCCC1C(=O)N2C(N(C)C)=Nc3ccc(C)cc3N2C1=O", "note": "(stereo not drawn) [azapropazone]", "values": [
      {"measurement": "viability at 10 µM", "setting": "in vitro", "value": 91.2, "unit": "%"}
    ]},
    {"compound": "Nc1ccn([C@@H]2O[C@H](CO)[C@@H](O)C2(F)F)c(=O)n1", "note": "[gemcitabine, 2′,2′-difluoro-2′-deoxycytidine]", "values": [
      {"measurement": "IC50", "setting": "[2]; read-out: IC50 against Sb-GLuc on the basis of luminescent signal", "value": 2600, "unit": "nM"},
      {"measurement": "Protection of HeLa cells from WT-PV (plaque assay)", "setting": "[1]", "value": "completely protected"},
      {"measurement": "Increase in viral RNA copies of WT-PV", "setting": "[3]", "value": "No noticeable increase"},
      {"measurement": "inhibition at 2 µM", "setting": "[3]; Enterovirus C, HeLa, read-out: Inhibition on WT-PV replication", "value": "> 90", "unit": "%"},
      {"measurement": "Inhibition of Sb-GLuc replication in 293T cells", "setting": "Sb-GLuc", "value": "inhibited Sb-GLuc replication"},
      {"measurement": "Cytotoxic effect in 293T cells", "setting": "293T cells", "value": "without cytotoxic effect"},
      {"measurement": "Effect on Vero cells", "setting": "Vero cells", "value": "kills Vero cells"},
      {"measurement": "Impact on immune cell counts and liver/kidney functions", "setting": "[4]", "value": "subtle and reversible impact"},
      {"measurement": "viability at 10 µM", "setting": "in vitro", "value": 87.9, "unit": "%"}
    ]},
    {"compound": "CCC(C)n1ncn(-c2ccc(N3CCN(c4ccc(OCC5COC(Cn6cncn6)(c6ccc(Cl)cc6Cl)O5)cc4)CC3)cc2)c1=O", "note": "(stereo not drawn) [itraconazole]", "values": [
      {"measurement": "Protection of HeLa cells from WT-PV (plaque assay)", "setting": "[1]", "value": "partial protective effect"},
      {"measurement": "viability at 10 µM", "setting": "in vitro", "value": 79.4, "unit": "%"}
    ]},
    {"compound": "COc1cc2ncnc(Nc3ccc(F)c(Cl)c3)c2cc1OCCCN1CCOCC1", "note": "[gefitinib]", "values": [
      {"measurement": "viability at 10 µM", "setting": "in vitro", "value": 80.1, "unit": "%"}
    ]},
    {"compound": "Cl.Cl.OCCN1CCN(CC/C=C2/c3ccccc3Sc3ccc(Cl)cc32)CC1", "note": "[zuclopenthixol hydrochloride]", "values": [
      {"measurement": "Ec (%), inhibitory effect on poliovirus replication", "setting": "[2]", "value": 81.8, "unit": "%"},
      {"measurement": "Vc (%), cell viability rate on HeLa cells", "setting": "HeLa cells", "value": 92.0, "unit": "%"}
    ]},
    {"compound": "NC[C@H]1O[C@H](O[C@H]2[C@H](O[C@@H]3O[C@H](CO)[C@@H](O)[C@H]3O)[C@@H](O)[C@H](N)C[C@@H]2N)[C@H](N)[C@@H](O)[C@@H]1O.O=S(=O)(O)O", "note": "[ribostamycin sulfate salt]", "values": [
      {"measurement": "Ec (%), inhibitory effect on poliovirus replication", "setting": "[2]", "value": 81.9, "unit": "%"},
      {"measurement": "Vc (%), cell viability rate on HeLa cells", "setting": "HeLa cells", "value": 88.8, "unit": "%"}
    ]},
    {"compound": "CCOc1ccc(Cc2nccc3cc(OCC)c(OCC)cc23)cc1OCC", "note": "[ethaverine hydrochloride]", "values": [
      {"measurement": "viability at 10 µM", "setting": "in vitro", "value": 88.4, "unit": "%"}
    ]},
    {"compound": "meclocycline sulfosalicylate", "values": [
      {"measurement": "Ec (%), inhibitory effect on poliovirus replication", "setting": "[2]", "value": 82.1, "unit": "%"},
      {"measurement": "Vc (%), cell viability rate on HeLa cells", "setting": "HeLa cells", "value": 81.5, "unit": "%"}
    ]},
    {"compound": "CC(=O)O[C@]1(C(C)=O)CC[C@H]2[C@@H]3C=C(Cl)C4=CC(=O)[C@@H]5C[C@@H]5[C@]4(C)[C@H]3CC[C@@]21C", "note": "[cyproterone acetate]", "values": [
      {"measurement": "viability at 10 µM", "setting": "in vitro", "value": 75.4, "unit": "%"}
    ]},
    {"compound": "C=C(NC(=O)C(=C)NC(=O)c1csc(C2=N[C@@H]3c4csc(n4)[C@H]4NC(=O)c5csc(n5)[C@H]([C@](C)(O)[C@@H](C)O)NC(=O)[C@H]5CSC(=N5)/C(=C/C)NC(=O)[C@H]([C@@H](C)O)NC(=O)c5csc(n5)[C@]3(CC2)NC(=O)[C@H](C)NC(=O)C(=C)NC(=O)[C@H](C)NC(=O)[C@H]([C@@H](C)CC)N[C@@H]2C=Cc3c([C@H](C)O)cc(nc3[C@H]2O)C(=O)O[C@@H]4C)n1)C(N)=O", "note": "[thiostrepton]", "values": [
      {"measurement": "viability at 10 µM", "setting": "in vitro", "value": 87.9, "unit": "%"}
    ]},
    {"compound": "Nc1ccn([C@@H]2O[C@H](COP(=O)(O)OP(=O)(O)OP(=O)(O)O)[C@@H](O)C2(F)F)c(=O)n1", "note": "[dFdC-TP, 2′,2′-difluoro-2′-deoxycytidine triphosphate]", "values": [
      {"measurement": "Inhibition of dsRNA elongation", "setting": "[5]", "value": "apparent inhibition; also recorded: weak inhibition"},
      {"measurement": "Inhibition of dsRNA synthesis or elongation", "setting": "[5]", "value": "complete inhibition"}
    ]}
  ]
}
